In patent US9492543B2, “Compositions for treating cognitive disorders” (priority 2009, dated 2016):

Tests used:
[1] = tested on: hippocampal excitatory synaptic transmission (fEPSP, perforant path - dentate gyrus); assay: Basal excitatory synaptic transmission (fEPSP amplitude) in the hippocampus of the freely moving rat; assay type: in vivo, Sprague-Dawley rat; settings: for activity on basal excitatory synaptic transmission (in words): Compound X 6 mg/kg ip, physostigmine 0.1 mg/kg ip, drug vs. vehicle, paired t-test; for DRUG FEPSP AMPLITUDE [% OF PRE-VEHICLE BASELINE ± S.E.M.]: ip, Compound X 6.0 mg/kg, physostigmine 0.1 mg/kg, 15 min post-drug period with largest increase
Procedure: (§1) Experiments were carried out in freely moving male Sprague-Dawley rats implanted with depth stimulating and recording electrodes in the hippocampus and olfactory cortex to (1) characterize the effect of a compound of Formula 1 ((2R,3S)-2-amino-3-hydroxy-3-(pyridin-4-yl)-1-(pyrrolidin-1-yl)propan-1-one) (“Compound X”) on basal excitatory synaptic transmission, a measure positively associated with behavioral performance and encoding of information; and (2) determine a possible interaction on synaptic transmission when Compound X is coapplied with physostigmine and galantamine—both members of the cholinesterase inhibitor family which has pro-cognitive efficacy in Alzheimer's Disease patients.
(§2) Field excitatory post-synaptic responses (fEPSPs) evoked by electrical stimulation were recorded in freely moving animals with depth electrodes permanently implanted in the hippocampus and olfactory cortex. Experiment 1 compared the effect of one dose level (6 mg/kg ip) of Compound X on hippocampal and cortical fEPSPs with vehicle control data. Experiment 2 compared the effect of Compound X (6 mg/kg ip) combined with either physostigmine (0.1 mg/kg ip) or galantamine (1 mg/kg ip) on hippocampal and cortical fEPSPs with vehicle control data.
(§3) Male Sprague Dawley rats, 3 months of age at the time of surgery, were used. The animals were housed individually and kept in a 12:12 light/dark cycle with food and water available ad libitum.
(§4) Preparation of animals with chronically implanted electrodes followed procedures essentially as described in earlier published work (U. Staubli and J. Scafidi, J. J. Neurosci. 17: 4820-4828 (1997)). For recordings from the hippocampus, the stimulating electrode was placed in the perforant path within the entorhinal cortex, and the recording electrode in the hilus of the hippocampal dentate gyrus. For recording from the olfactory cortex, the stimulating electrode was placed in the olfactory tract and the recording electrode in the layer I of the piriform cortex.
Ten days following recovery from surgery, the animals were acclimated to the recording cage as well as to the attachment of a recording lead to the head stage. Recording sessions began by adjusting current intensities (25-100 μA) and pulse width of the monophasic stimulation pulse (100-250 μsec) to produce a field excitatory postsynaptic potential (fEPSP) that was 50-60% of the maximum amplitude of the population-spike free response which typically ranged between 4 and 8 mV. Recording signals were amplified and filtered with a band pass of 1 Hz to 5 kHz and fed into a PC running specialized software (NacGather) that digitizes measures and stores the evoked responses. […]

[2] = tested on: excitatory synaptic transmission in the olfactory cortex (fEPSP, olfactory tract - piriform cortex layer I); assay: Basal excitatory synaptic transmission (fEPSP amplitude) in the olfactory cortex of the freely moving rat; assay type: in vivo, Sprague-Dawley rat; settings: for activity on basal excitatory synaptic transmission (in words): Compound X 6 mg/kg ip, drug vs. vehicle, paired t-test; for DRUG FEPSP AMPLITUDE [% OF PRE-VEHICLE BASELINE ± S.E.M.]: ip, Compound X 6.0 mg/kg, 15 min post-drug period with largest increase
Procedure: as §1, §2, §3, §4
Ten days following recovery from surgery, the animals were acclimated to the recording cage as well as to the attachment of a recording lead to the head stage. Recording sessions began by adjusting current intensities (25-100 μA) and pulse width of the monophasic stimulation pulse (100-250 μsec) to produce a field excitatory postsynaptic potential (fEPSP) that was 50-60% of the maximum amplitude of the population-spike free response which typically ranged between 4 and 8 mV. Recording signals were amplified and filtered with a band pass of 1 Hz to 5 kHz and fed into a PC running specialized software (NacGather) that digitizes measures and stores the evoked responses.
Hippocampal animals (subjects with electrodes implanted into hippocampus) were randomly assigned to one of 3 groups, i.e., Compound X alone, Compound X plus physostigmine, physostigmine alone. Cortical animals (subjects with electrodes implanted into olfactory cortex) were randomly assigned to 5 groups, i.e., Compound X alone, Compound X plus physostigmine, physostigmine alone, Compound X plus galantamine, galantamine alone. […] If changes in baseline greater than +5% were observed, the experiment was terminated for that day. All other animals were injected with test compound 20 min after vehicle, and fEPSP recording was continued for at least 2 hours, but 4 hrs if the drug effect was still present at 2 hrs. In cases where animals were used repeatedly, a minimum of three washout days followed each test session. Responses were sampled once every 20 sec throughout the experiment.
Compound X was kept frozen at approximately −20° C. in a freezer as a powder. Immediately prior the powder was dissolved in double distilled water (ddw) to make a 12 mg/ml stock and then diluted by 50% for injection at 6 mg/kg at a final volume of 1 ml/kg.
Physostigmine (eserine hemisulfate) was purchased from Sigma Aldrich and dissolved in ddw to make a 1 mg/ml stock solution. […]

Structure (SMILES) | activity on basal excitatory synaptic transmission (in words) [1] | DRUG FEPSP AMPLITUDE [% OF PRE-VEHICLE BASELINE ± S.E.M.] [1] | activity on basal excitatory synaptic transmission (in words) ([2]; galantamine 1 mg/kg ip) | activity on basal excitatory synaptic transmission (in words) ([2]; physostigmine 0.1 mg/kg ip) | DRUG FEPSP AMPLITUDE [% OF PRE-VEHICLE BASELINE ± S.E.M.] ([2]; galantamine 1.0 mg/kg) | DRUG FEPSP AMPLITUDE [% OF PRE-VEHICLE BASELINE ± S.E.M.] ([2]; physostigmine 0.1 mg/kg)
N[C@@H](C(=O)N1CCCC1)[C@@H](O)c1ccncc1 [Compound X, (2R,3S)-2-amino-3-hydroxy-3-(pyridin-4-yl)-1-(pyrrolidin-1-yl)propan-1-one] | significant facilitatory activity | 7.86 ± 2.98 % OF PRE-VEHICLE BASELINE | significant facilitatory activity | significant facilitatory activity | 10.67 + 1.67 % OF PRE-VEHICLE BASELINE | 10.67 + 1.67 % OF PRE-VEHICLE BASELINE
COc1ccc2c3c1O[C@H]1C[C@@H](O)C=C[C@@]31CCN(C)C2 [Galantamine, reference compound] |  |  | inactive |  | 3.13 + 1.73 % OF PRE-VEHICLE BASELINE | 
CNC(=O)Oc1ccc2c(c1)[C@]1(C)CCN(C)[C@@H]1N2C [Physostigmine, reference compound] | inactive | 2.33 + 2.91 % OF PRE-VEHICLE BASELINE |  |  |  | 5.30 + 0.69 % OF PRE-VEHICLE BASELINE
